Our source for the IC50 values is US11780839B2, “Compounds for treating Huntington's disease” (PTC THERAPEUTICS, INC., priority 2018, dated 2023).

This assay has as its system Endogenous Huntingtin Protein. The experiment in a line: Endogenous Huntingtin Protein Assay (ELISA-based Meso Scale Discovery electrochemiluminescence). Type of assay: cell-based. As to conditions: MSD electrochemiluminescence, Table 1. In short, it runs like this:
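Huntingtin was captured overnight at 4 °C on plates coated with 1 μg/mL MW1 (polyQ-expanded) or MAB2166 antibody and BSA-blocked. Detection used a rabbit monoclonal and then a SULFO-TAG goat anti-rabbit antibody (0.25 μg/mL, 1 h each, room temperature). Signal was read by electrochemiluminescence.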
For orientation: IC50 means the concentration that gives 50% inhibition. Read a high IC50 as a need for much substance. As to `CN(c1ncc(-c2cc(F)c(-c3ccn[nH]3)cc2O)nn1)C1CC(C)(C)NC(C)(C)C1` [Cpd 125, 4-fluoro-2-{3-[methyl(2,2,6,6-tetramethylpiperidin-4-yl)amino]-1,2,4-triazin-6-yl}-5-(1H-pyrazol-5-yl)phenol], the IC50 was at most 100 nM.
Molecule `Oc1cc(-c2cn[nH]c2)ccc1-c1cnc(N2CCC3(CC2)CNC3)nn1` [Cpd 95, 2-[3-(2,7-diazaspiro[3.5]nonan-7-yl)-1,2,4-triazin-6-yl]-5-(1H-pyrazol-4-yl)phenol] registered an IC50 of 100 to 500 nM.
To `CN(c1ncc(-c2ccc(-c3cn[nH]c3)cc2O)nn1)C1CCCNC1` (stereo not drawn) [Cpd 20, 2-{3-[methyl(piperidin-3-yl)amino]-1,2,4-triazin-6-yl}-5-(1H-pyrazol-4-yl)phenol] belongs over 500 nM; to `CN(c1ncc(-c2ccc(-c3ccc4nnn(C)c4n3)cc2O)nn1)C1CC(C)(C)NC(C)(C)C1` [Cpd 173], at most 100 nM.
To `CN1CCC2(CC1)CN(c1ncc(-c3ccc(-n4cc(F)cn4)cc3O)nn1)C2` [Cpd 229, 5-(4-fluoro-1H-pyrazol-1-yl)-2-[3-(7-methyl-2,7-diazaspiro[3.5]nonan-2-yl)-1,2,4-triazin-6-yl]phenol] belongs over 500 nM; to `Cn1ncc2cc(-c3ccc(-c4cnc(N[C@H]5CC(C)(C)NC(C)(C)[C@H]5F)nn4)c(O)c3)cnc21` [Cpd 284], at most 100 nM; to `Oc1cc(-c2cn[nH]c2)ccc1-c1cnc(N2CC3CNCC3C2)nn1` (stereo not drawn) [Cpd 337, 2-[3-(hexahydropyrrolo[3,4-c]pyrrol-2(1H)-yl)-1,2,4-triazin-6-yl]-5-(1H-pyrazol-4-yl)phenol], at most 100 nM.
In turn, `Cc1cc(-c2ccc(-c3cnc(N(C)C4CC(C)(C)NC(C)(C)C4)nn3)c(O)c2)nc(O)c1N` [Cpd 168, 3-amino-6-(3-hydroxy-4-{3-[methyl(2,2,6,6-tetramethylpiperidin-4-yl)amino]-1,2,4-triazin-6-yl}phenyl)-4-methylpyridin-2-ol] showed an IC50 of 100 to 500 nM.
For `Cc1cn2nc(-c3ccc(-c4cnc(N(C)C5CC(C)(C)NC(C)(C)C5)nn4)c(O)c3)cc(C)c2n1` [Cpd 141, 5-(2,8-dimethylimidazo[1,2-b]pyridazin-6-yl)-2-{3-[methyl(2,2,6,6-tetramethylpiperidin-4-yl)amino]-1,2,4-triazin-6-yl}phenol] the value was at most 100 nM; for `CC(=O)c1cn(-c2ccc(-c3cnc(N(C)C4CC(C)(C)NC(C)(C)C4)nn3)c(O)c2)cn1` [Cpd 140, 1-[1-(3-hydroxy-4-{3-[methyl(2,2,6,6-tetramethylpiperidin-4-yl)amino]-1,2,4-triazin-6-yl}phenyl)-1H-imidazol-4-yl]ethan-l-one], at most 100 nM.
For `CNC1CCN(c2ncc(-c3ccc(-c4ncns4)cc3O)nn2)C1` (stereo not drawn) [Cpd 269, 2-{3-[3-(methylamino)pyrrolidin-1-yl]-1,2,4-triazin-6-yl}-5-(1,2,4-thiadiazol-5-yl)phenol], the IC50 was 100 to 500 nM.
For `Cn1ccc(-c2ccc(-c3cnc(N4CCC(NC(C)(C)C)C4)nn3)c(O)c2)n1` (stereo not drawn) [Cpd 175, 2-{3-[3-(tert-butylamino)pyrrolidin-1-yl]-1,2,4-triazin-6-yl}-5-(1-methyl-1H-pyrazol-3-yl)phenol] the value was 1000 to 3000 nM.
